In the NIST ThermoML archive (doi:10.1016/j.tca.2012.08.011):

Experiment: xn = mol fraction of the nth substance listed
Conditions: 101 kPa, Liquid; for speed of sound: Linear variable-path acoustic interferometer; for mass density: Vibrating tube method

NC1CCCCC1 [cyclohexylamine] + c1ccccc1
Conditions | mass density, 293.15 K [kg/m3] | mass density, 298.15 K [kg/m3] | mass density, 303.15 K [kg/m3] | speed of sound, 293.15 K [m/s] | speed of sound, 298.15 K [m/s] | speed of sound, 303.15 K [m/s] | speed of sound, 308.15 K [m/s]
x1 = 0.0621 | 877.45 | 872.22 | 866.94 | 1328 | 1304.7 | 1281.5 | 1258.4
x1 = 0.0938 | 876.73 | 871.52 | 866.31 | 1331 | 1307.7 | 1284.3 | 1261.5
x1 = 0.1434 | 875.68 | 870.56 | 865.4 | 1335.6 | 1312.3 | 1289.2 | 1266.2
x1 = 0.1546 | 875.47 | 870.34 | 865.2 | 1336.6 | 1313.4 | 1290.3 | 1267.5
x1 = 0.2031 | 874.52 | 869.46 | 864.38 | 1341.3 | 1318.1 | 1295.1 | 1272.5
x1 = 0.2475 | 873.73 | 868.71 | 863.69 | 1345.8 | 1322.7 | 1299.7 | 1277.2
x1 = 0.2972 | 872.9 | 867.95 | 862.98 | 1350.9 | 1327.9 | 1305.2 | 1282.6
x1 = 0.3472 | 872.15 | 867.25 | 862.36 | 1356.1 | 1333.3 | 1310.6 | 1288.1
x1 = 0.3945 | 871.5 | 866.64 | 861.76 | 1361.2 | 1338.4 | 1315.6 | 1293.2
x1 = 0.4786 | 870.45 | 865.69 | 860.88 | 1370.2 | 1347.5 | 1325 | 1302.7
x1 = 0.4948 | 870.28 | 865.5 | 860.72 | 1372.1 | 1349.2 | 1326.9 | 1304.6
x1 = 0.5013 | 870.2 | 865.45 | 860.67 | 1372.6 | 1349.9 | 1327.4 | 1305.1
x1 = 0.5389 | 869.83 | 865.08 | 860.32 | 1376.9 | 1354.3 | 1331.8 | 1309.4
x1 = 0.5396 | 869.83 | 865.08 | 860.32 | 1377 | 1354.4 | 1331.9 | 1309.5
x1 = 0.5419 | 869.8 | 865.06 | 860.3 | 1377.1 | 1354.6 | 1332.1 | 1309.8
x1 = 0.5927 | 869.3 | 864.62 | 859.9 | 1382.8 | 1360.2 | 1337.9 | 1315.5
x1 = 0.6428 | 868.89 | 864.23 | 859.54 | 1388.4 | 1365.8 | 1343.5 | 1321.3
x1 = 0.6927 | 868.55 | 863.88 | 859.24 | 1394.2 | 1371.8 | 1349.5 | 1327.3
x1 = 0.7465 | 868.2 | 863.59 | 858.96 | 1400.3 | 1378 | 1355.6 | 1333.5
x1 = 0.7962 | 867.93 | 863.33 | 858.72 | 1405.9 | 1383.7 | 1361.5 | 1339.7
x1 = 0.8474 | 867.74 | 863.17 | 858.58 | 1411.9 | 1389.9 | 1367.9 | 1345.9
x1 = 0.897 | 867.61 | 863.04 | 858.47 | 1418 | 1396 | 1374.1 | 1352.2
x1 = 0.9485 | 867.49 | 862.94 | 858.38 | 1424.2 | 1402.4 | 1380.5 | 1359
x1 = 1 | 867.39 | 862.85 | 858.31 | 1430.5 | 1408.8 | 1387.3 | 1366
